Measurements as given in publication PMC5442318, “Hundreds of dual-stage antimalarial molecules discovered by a functional gametocyte screen” (Nature Communications, 2017).
Read-outs that look alike come from different tables or passages of the source.

Assays:
[1] = test system: P. falciparum asexual blood stages; settings: ref 1 (Gamo, F. J. et al., Nature 465, 305-310, 2010), cited from earlier work; for IC50: TCAMS asexual blood stage data, read-out: Pf Asexual blood stages XC50; for Pf Asexual stages XC50: TCAMS data
[2] = test system: P. falciparum stages IV–V gametocytes; experiment: Gametocytocidal ATP-depletion assay (gametocyte ATP bioluminescence); assay type: cell-based, Plasmodium falciparum; settings: Plasmodium falciparum, mean
Procedure, shortened: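 Read-out is luciferase luminescence of parasite ATP (BacTiter-Glo), standing in for viability. Double-purified mature stage IV–V gametocytes, 12,500 per well, were exposed 48 h at 37 °C in low-O2 gas; screening concentration 2 μM.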

[3] = test system: P. falciparum stage V female gametocytes; experiment: P. falciparum female gametocyte activation assay (Pf FGAA), 24 h or 48 h preincubation, Pfs25 expression readout; assay type: cell-based, Plasmodium falciparum NF54; settings: for Biological profile: Pf FGAA with 48 h, 24 h or post-activation addition, active = IC50 below 2 μM; for IC50: Plasmodium falciparum; for Pf FGAA classification: SLOW / FAST / GAMETE from activity at 48h, 24h, 0h incubation
Procedure, shortened: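 Female activation, triggered by xanthurenic acid and cooling, was scored by imaging Cy3-labelled anti-Pfs25 female gametes after 24 h at 26 °C. Beforehand, purified NF54 stage V gametocytes had been incubated with compound for either 24 h or 48 h (37 °C, 3% O2). Values are pIC50 from full-curve regression.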

[4] = 24h incubation time, read-out: Pf FGAA IC50 (µM) 24h
[5] = stage V gametocytes, 48 h exposure, read-out: PfFGAA IC50

IC50 [3, 4] [µM] | IC50 [3, 5] [µM] | IC50 ([3]; P. falciparum female gametocytes, mean, read-out: Gametocytes mean Pf FGAA IC50) [µM] | IC50 ([3]; 48h incubation time, read-out: Pf FGAA IC50 (µM) 48h) [µM] | IC50 ([3]; mean, P. falciparum female gametocyte activation assay, read-out: Gametocytes mean Pf FGAA IC50) [µM] | SMILES | IC50 [1] [nM] | Pf Asexual stages XC50 [1] [nM] | inhibition at 2 µM [2] [%] | Biological profile [3] | Pf FGAA classification [3]
0.41 | 0.21 | – | – | – | NCC1(c2nc(-c3ccc(Cl)c(O)c3)c(-c3ccncc3)[nH]2)CCCCC1 [TCMDC-141154] | 740 | 530 | -10.5 | Gamete-targeting | GAMETE
0.96 | 0.36 | – | – | – | COc1cc(OC)cc(C(=O)Nc2nc(-c3ccccn3)cs2)c1 [TCMDC-125345] | 560 | 560 | 39.5 | Fast-acting | FAST
– | 0.5 | 0.34 | – | – | CC1Cc2ccccc2N1S(=O)(=O)c1cccc(C(=O)Nc2nc(-c3ccccn3)cs2)c1 (centres unmarked) [TCMDC-124559] | 1320 | 1320 | 8.95 | Fast-acting | FAST
1.68 | 0.53 | – | – | – | CC(C)(CNC(=O)[C@H]1CCCCN1)c1nc(-c2ccc(Cl)c(O)c2)c(-c2ccncc2)[nH]1 [TCMDC-141070] | 730 | 730 | -0.73 | Gamete-targeting | GAMETE
0.44 | 0.44 | – | 0.44 | 0.44 | Cc1ccc(Cn2nc(Cl)c(N3CCNCC3)cc2=O)cc1NC(=O)Nc1ccc(-c2ccccc2)cc1 [TCMDC-141698] | 680 | 670 | -7.4 | Gamete-targeting | GAMETE

SMILES | IC50 [3, 4] [µM] | IC50 [3, 5] [µM] | IC50 ([3]; P. falciparum female gametocytes, mean, read-out: Gametocytes mean Pf FGAA IC50) [µM] | IC50 ([3]; 48h incubation time, read-out: Pf FGAA IC50 (µM) 48h) [µM] | IC50 ([3]; mean, P. falciparum female gametocyte activation assay, read-out: Gametocytes mean Pf FGAA IC50) [µM] | IC50 [1] [nM] | Pf Asexual stages XC50 [1] [nM] | inhibition at 2 µM [2] [%] | Biological profile [3] | Pf FGAA classification [3]
FC(F)(F)c1cnc(Sc2nnc(-c3ccncc3)o2)c(Cl)c1 [TCMDC-123767] | > 20 | 0.16 | – | – | – | 270 | 270 | -5.49 | Slow-acting | SLOW
